Experiments:
cysteine protease = experiment: Cysteine proteinase activity, Z-Phe-Arg-MNA (in vitro); type: biochemical, Rhynchophorus ferrugineus; details: fourth instar larvae midgut homogenate
Method: The activity of cysteine proteinase was determined in the fourth midgut instar larval homogenate of R. ferrugineus using the substrate Z-Phe-Arg-MNA [1]. Ten larvae were carefully removed, dissected, and rinsed repeatedly with NaCl solution (0.9% (w/v). The midgut instar was homogenized in protease assay buffer (500 µL) [5 mM DTT, 50 mM HEPS (N-2-Hydroxyethyl piperazin-N’-2-ethanesulfonic acid), pH 8.0, and 0.1 percent Triton X-100]. The reaction mixture was centrifuged for 30 min at 5000 rpm (Sigma 3k30 cooling centrifuge). The supernatant was utilized to determine the overall activity of proteolytic enzymes and the protein content. The supernatant (10 µL) was incubated for 30 min at 37 °C, and the volume was adjusted to 60 µL using assay buffer (pH 8) before adding 100 µL of substrate (0.5 mM). Prior to adding the substrate, 10 µL enzyme samples were pre-incubated with iodoacetic acid for 10 min. After 60 min at 37 °C of mixture incubation, the reaction was halted with the addition of 1.5 mL mersalyl (5 mM), 0.02 mg/mL fast garnet reactive solution, and 2% Tween 20. The reaction was centrifuged (at 5000 rpm, 6 min), then the absorbance was determined (at 520 nm). The activity of cysteine proteinase was measured using an ELISA quick plate reader at the OD520/60 min/mg of midgut protein. As a blank, a test mixture devoid of enzyme was used. […] The fourth homogenates of midgut larval were produced as reported before in the experiment for determining enzyme activity. As previously disclosed, the inhibitory experiment was performed using a microplate assay. A series of inhibitor concentrations was created to determine the inhibitor’s maximal inhibitory effect. Leupeptin concentrations of 0.01, 0.05, 0.1, and 1.0 mM, PMSF concentrations of 0.1, 1.0, 10, and 50 mM, TLCK and TPCK concentrations of 0.01, 0.05, 0.1, 1, 50, and 100 mM, EDTA concentrations of 0.1, 1, 10, 50, and 100 mM, and iodoacetic acid concentrations of 0.01, 0.05, 0.1, and 1 mM.
As a control, an assay combination devoid of inhibitors was utilized. The absorbance of the enzymes was determined using an ELISA plate quick reader at various wavelengths. The percentage activity of the control enzyme for each inhibitor was evaluated for each enzyme. Protease activity was assayed in vivo in the R. ferrugineus fourth midgut larval instars, which were treated with 1, 10, 50, 100, 500, 1000, and 5000 mg/L of extracts or compounds, measured as described above. Larvae were exposed for 24 h to leaf discs treated with extract and compounds.

metalloprotease [1] = experiment: Metalloprotease activity of midgut from larvae treated 24 h (in vivo); parameters: species or system Rhynchophorus ferrugineus; details: midgut of fourth instar larvae treated for 24 h
Method: (§1) A substrate azocasein assessed the metalloproteinases activity in the fourth midgut instar larval homogenate. Ten larvae were carefully removed, dissected, and rinsed repeatedly with NaCl solution (0.9% (w/v). […] After homogenization, the homogenates were centrifuged at 5000 rpm (for 30 min) using a Sigma centrifuge 3k30, and the supernatant was utilized to determine enzyme activity and protein content. The supernatant per experiment (10 µL) was incubated for 20 min at 37 °C, and the volume was adjusted to 60 µL using assay buffer pH 8 before adding azocasein (200 µL, 2% (w/v)). In all instances, 10 µL enzyme samples were incubated for 10 min (except EDTA with 20 min), and EDTA was used as a blocker of metalloproteinase activity before being added to the specific substrate. The reaction was interrupted with 300 µL of trichloroacetic acid (TCA cold, 10% (v/v) and continued at 37 °C for 180 min. The reaction mixture was then centrifuged at 5000 rpm for 20 min (Sigma centrifuge 3k30), sodium hydroxide (10 µL of 10 N) was incorporated into the supernatant, then absorbance was determined using an ELISA plate reader at 450 nm. As a blank, an assay mixture devoid of the enzyme was devoted, the specific activity was determined using the OD450 mg^−1 protein min^−1 value, and a blank solution sample devoid of enzyme solution was determined. To learn more about the proteases found in homogenate preparations of R. ferrugineus fourth midgut larval instars, inhibitors from many different types of mechanisms were used. […] As a control, an assay combination devoid of inhibitors was utilized. The absorbance of the enzymes was determined using an ELISA plate quick reader at various wavelengths. The percentage activity of the control enzyme for each inhibitor was evaluated for each enzyme. […] Larvae were exposed for 24 h to leaf discs treated with extract and compounds.

metalloprotease [2] = experiment: Metalloproteinase activity, azocasein (in vitro); type: biochemical, Rhynchophorus ferrugineus; details: fourth instar larvae midgut homogenate
Method: as §1

[3] = test system: R. ferrugineus fourth larvae; experiment: Topical application (contact insecticide) on larvae; type: in vivo, Rhynchophorus ferrugineus; details: 4th larvae, probit analysis, 95% confidence limits in brackets
Method: The R. ferrugineus adult and larvae were acquired from an insect breeding lab at King Faisal University’s Date Palm Research Center of Excellence and grown utilizing sugarcane stem long pieces. The extracts activity against larvae was determined by using topical application method with storing larvae at 4–5 °C for 5 min. Previous serial concentrations of extract (10 µL) were applied to the dorsum of each larvae using a hand-operated micro-applicator (Burkard Manufacturing Co., Ltd., Hertfordshire, UK with a 50-ll micro-syringe (MS-N50; Ito Corp., Shizuoka, Japan). Each larva was feeding on 10 cm stem pieces of long sugarcane, with 5 larvae/box with three replicates. After topical administration, larval mortality was determined after 24, 48, 72, and 96 h to determine the LD50. Adults were tested for antifeedant effect determined using ten-centimeter-long sections of sugarcane stem divided into equal longitudinal halves. Pieces of long sections of sugarcane stem with area ~32.2 cm^2 were dipped for ten seconds in the previous serial concentration of extract (10 mL) and, then, dried in room temperature air. […] Each package received a replacement pair (male and female). Each treatment was replicated ten times. After 24, 48, 72, and 96 h, feeding observations were assayed.
Finney states that the statistical analysis and probit analysis were conducted using the SPSS 25.0 program (Statistical Package for Social Sciences, Armonk, NY, USA). Chemical components were determined by PCA using SPSS 25.0 program and presented using XLSTAT 2018.1. PCA is a clustering technique that is used to determine the relationships between samples. […] We did a mortality against dosage regression and converted the resultant median dose to an LC50 value (µg/mL). The range of LC50 was calculated with a 95 percent confidence interval using least-squares. We conducted a one-way analysis of variance on the enzyme activity data (ANOVA). The Student–Newman–Keuls (SNK) test was applied with separate means, and differences at p ≤ 0.05 were considered significant.

Compound | IC50 against cysteine protease (in vitro) (cysteine protease) | IC50 against metalloprotease (in vivo) (metalloprotease [1]) | IC50 against metalloprotease (in vitro) (metalloprotease [2]) | LD50 [3]
O=C(O)C[C@H](C(=O)O)[C@@H](O)C(=O)O [Isocitric acid] | 119.1 µg/mL | 169.2 µg/mL | 127.8 µg/mL | 23.9 (21.1–24.6) µg/Larvae
O=C(/C=C/c1ccc(O)c(O)c1)O/C=C\c1ccc(O)c(O)c1 [Nepetoidin B] | 63.3 µg/mL | 95.8 µg/mL | 51.1 µg/mL | 11.9 (11.1–12.3) µg/Larvae
C[C@@H]1O[C@@H](OC[C@H]2O[C@@H](Oc3c(-c4ccc(O)c(O)c4)oc4cc(O)cc(O)c4c3=O)[C@H](O)[C@@H](O)[C@@H]2O)[C@H](O)[C@H](O)[C@H]1O [Quercetin-3-O-rutinoside] | 53.6 µg/mL | 612.4 µg/mL | 37.3 µg/mL | 16.9 (15.1–17.6) µg/Larvae
O=C(/C=C/c1ccc(O)c(O)c1)O[C@H](Cc1ccc(O)c(O)c1)C(=O)O [Rosmarinic acid] | 67.8 µg/mL | 86.7 µg/mL | 48.4 µg/mL | 12.4 (11.8–12.7) µg/Larvae
COc1ccc(-c2cc(=O)c3c(O)c(OC)c(OC)cc3o2)cc1 [Salvigenin, 5-Hydroxy-6,7,4′-trimethoxyflavone] | 89.6 µg/mL | 113.7 µg/mL | 49.1 µg/mL | 11.4 (10.4–11.8) µg/Larvae
dicaffeoyl-tartaric acid [Chicoric acid] | 81.2 µg/mL | 74.2 µg/mL | 44.6 µg/mL | 10.23 (9.87–10.94) µg/Larvae

Reference: PMC9027599, “Secondary Metabolites in Basil, Bio-Insecticide, Inhibition Effect, and In Silico Molecular Docking against Proteolytic Enzymes of the Red Palm Weevil (Rhynchophorus ferrugineus)” (Plants, 2022)
